Assay results taken from PubChem BioAssay (NCI).
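48-hour exposure; five concentrations; linearly interpolated endpoints. GI50 = concentration required for 50% inhibition of growth. The concentration for full growth arrest is given as TGI.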

Legend:
Experiment in all cases: NCI-60 cell line screen, 48 h
[1] = test system: 786-0 renal
[2] = test system: A498 renal
[3] = test system: A549 NSCLC
[4] = test system: ACHN renal
[5] = test system: BT-549 breast
[6] = test system: CAKI-1 renal
[7] = test system: CCRF-CEM leukemia
[8] = test system: COLO 205 colon
[9] = test system: DU-145 prostate
[10] = test system: EKVX NSCLC
[11] = test system: HCT-116 colon
[12] = test system: HCT-15 colon
[13] = test system: HL-60(TB) leukemia
[14] = test system: HOP-62 NSCLC
[15] = test system: HS 578T breast
[16] = test system: HT29 colon
[17] = test system: IGROV1 ovarian
[18] = test system: K-562 leukemia
[19] = test system: KM12 colon
[20] = test system: M14 melanoma
[21] = test system: MALME-3M melanoma
[22] = test system: MDA-MB-231 breast
[23] = test system: MDA-MB-435
[24] = test system: MDA-N
[25] = test system: MOLT-4 leukemia
[26] = test system: NCI-H226 lung
[27] = test system: NCI-H23 lung
[28] = test system: NCI-H460 lung
[29] = test system: NCI-H522 lung
[30] = test system: NCI/ADR-RES ovarian
[31] = test system: OVCAR-3 ovarian
[32] = test system: OVCAR-4 ovarian
[33] = test system: OVCAR-5 ovarian
[34] = test system: OVCAR-8 ovarian
[35] = test system: PC-3 prostate
[36] = test system: RPMI-8226 leukemia
[37] = test system: RXF 393 renal
[38] = test system: SF-268 CNS
[39] = test system: SF-295 CNS
[40] = test system: SK-MEL-2 melanoma
[41] = test system: SK-MEL-28 melanoma
[42] = test system: SK-MEL-5 melanoma
[43] = test system: SK-OV-3 ovarian
[44] = test system: SN12C renal
[45] = test system: SNB-19 CNS
[46] = test system: SNB-75 CNS
[47] = test system: SW-620 colon
[48] = test system: TK-10 renal
[49] = test system: U251 CNS
[50] = test system: UACC-257 melanoma
[51] = test system: UACC-62 melanoma
[52] = test system: UO-31 renal
[53] = test system: HCC-2998 colon
[54] = test system: HOP-92 NSCLC
[55] = test system: LOX IMVI melanoma
[56] = test system: MCF7 breast
[57] = test system: SF-539 CNS
[58] = test system: SR leukemia
[59] = test system: T-47D breast

With `CCCN=C1CCN(Cc2ccccc2)c2ccccc2N1` the TGI [1] was > 100 µM, the TGI [2] was 25.4 µM and the TGI [3] was > 100 µM. For the same compound, the TGI [4] was 94.1 µM, the TGI [5] was 34.3 µM and the TGI [6] was 63.9 µM. For the same compound, the TGI [7] was > 100 µM, the TGI [8] was 22.9 µM and the TGI [9] was > 100 µM. The TGI [10] was > 100 µM, the TGI [11] was > 100 µM and the TGI [12] was 51.7 µM. The TGI [13] was 37.3 µM, the TGI [14] was > 100 µM and the TGI [15] was 36.2 µM. For the same compound, the TGI [16] was 90.1 µM, the TGI [17] was 19.5 µM and the TGI [18] was 19.4 µM. For the same compound, the TGI [19] was 64.6 µM, the TGI [20] was 31.3 µM and the TGI [21] was 22.1 µM. The TGI [22] was 59.9 µM, the TGI [23] was 45 µM and the TGI [24] was > 100 µM. The TGI [25] was 34.1 µM, the TGI [26] was 96.1 µM and the TGI [27] was 41.5 µM. For the same compound, the TGI [28] was 36.3 µM, the TGI [29] was 27.9 µM and the TGI [30] was 34.4 µM. For the same compound, the TGI [31] was > 100 µM, the TGI [32] was > 100 µM and the TGI [33] was > 100 µM. It also gave a TGI [34] of 32.6 µM, a TGI [35] of 59.9 µM and a TGI [36] of 28.9 µM. The TGI [37] was 29.6 µM, the TGI [38] was 36.8 µM and the TGI [39] was 95.3 µM. The TGI [40] was 31.6 µM, the TGI [41] was 29.3 µM and the TGI [42] was 28.2 µM. For the same compound, the TGI [43] was > 100 µM, the TGI [44] was > 100 µM and the TGI [45] was > 100 µM. For the same compound, the TGI [46] was 27.5 µM, the TGI [47] was > 100 µM and the TGI [48] was > 100 µM. It also gave a TGI [49] of 43.6 µM, a TGI [50] of 29.2 µM and a TGI [51] of 26.2 µM. The TGI [52] was > 100 µM.
With `Cc1nc(C(N)=S)sc1/C(CC(=O)C(=O)Nc1cccc2ccc(O)cc12)=N\NC(=O)c1ccncc1` the TGI [1] was > 100 µM, the TGI [3] was > 100 µM and the TGI [4] was > 100 µM. For the same compound, the TGI [5] was > 100 µM, the TGI [6] was > 100 µM and the TGI [7] was > 100 µM. For the same compound, the TGI [8] was > 100 µM, the TGI [9] was > 100 µM and the TGI [10] was > 100 µM. For the same compound, the TGI [53] was > 100 µM, the TGI [11] was > 100 µM and the TGI [12] was > 100 µM. The TGI [13] was > 100 µM, the TGI [14] was > 100 µM and the TGI [54] was > 100 µM. The TGI [15] was > 100 µM, the TGI [16] was > 100 µM and the TGI [17] was > 100 µM. The TGI [19] was > 100 µM, the TGI [55] was > 100 µM and the TGI [20] was > 100 µM. The TGI [56] was > 100 µM, the TGI [22] was > 100 µM and the TGI [23] was > 100 µM. For the same compound, the TGI [24] was > 100 µM, the TGI [25] was 74.3 µM and the TGI [26] was > 100 µM. For the same compound, the TGI [27] was > 100 µM, the TGI [28] was 64.6 µM and the TGI [29] was > 100 µM. For the same compound, the TGI [30] was > 100 µM, the TGI [31] was > 100 µM and the TGI [32] was > 100 µM. The TGI [33] was > 100 µM, the TGI [34] was > 100 µM and the TGI [35] was > 100 µM. For the same compound, the TGI [37] was > 100 µM, the TGI [38] was > 100 µM and the TGI [39] was > 100 µM. The TGI [57] was > 100 µM, the TGI [40] was > 100 µM and the TGI [41] was > 100 µM. The TGI [42] was > 100 µM, the TGI [43] was > 100 µM and the TGI [44] was > 100 µM. For the same compound, the TGI [45] was > 100 µM, the TGI [46] was > 100 µM and the TGI [47] was > 100 µM. The TGI [48] was > 100 µM, the TGI [49] was > 100 µM and the TGI [50] was > 100 µM. The TGI [51] was > 100 µM and the TGI [52] was > 100 µM.
`CCOc1cc2c(cc1O)/C(=N\OC)C[C@@H]1[C@@H]2CC[C@]2(C)[C@@H](O)CC[C@@H]12` was tested, and the TGI [2] was 0.944 µM, the TGI [3] was > 100 µM and the TGI [4] was > 100 µM. The TGI [5] was 40.9 µM, the TGI [6] was > 23.4 µM and the TGI [7] was > 100 µM. The TGI [8] was 40.8 µM, the TGI [9] was > 100 µM and the TGI [10] was > 100 µM. The TGI [53] was 14.4 µM, the TGI [11] was > 38.7 µM and the TGI [12] was 16.1 µM. The TGI [14] was 26.4 µM, the TGI [54] was > 96.6 µM and the TGI [15] was 0.776 µM. The TGI [16] was 15.3 µM, the TGI [17] was > 30.1 µM and the TGI [18] was > 100 µM. The TGI [19] was 7.63 µM, the TGI [55] was 16.7 µM and the TGI [20] was 21.8 µM. For the same compound, the TGI [21] was 34.7 µM, the TGI [56] was > 37.6 µM and the TGI [22] was 44.7 µM. For the same compound, the TGI [24] was 0.031 µM, the TGI [25] was 26.5 µM and the TGI [26] was 0.654 µM. For the same compound, the TGI [27] was > 39.2 µM, the TGI [28] was 37.3 µM and the TGI [29] was 0.518 µM. For the same compound, the TGI [30] was 0.186 µM, the TGI [31] was 2.29 µM and the TGI [32] was > 100 µM. For the same compound, the TGI [33] was > 100 µM, the TGI [34] was 3.91 µM and the TGI [35] was > 30.7 µM. The TGI [38] was > 43.3 µM, the GI50 [39] was 0.242 µM and the TGI [39] was 2.32 µM. For the same compound, the TGI [40] was 4.42 µM, the TGI [41] was > 60.2 µM and the TGI [42] was 12.6 µM. For the same compound, the TGI [43] was > 100 µM, the TGI [44] was 48.1 µM and the TGI [45] was > 100 µM. For the same compound, the TGI [46] was 0.21 µM, the TGI [58] was 0.0585 µM and the TGI [47] was > 35.3 µM. The TGI [48] was > 100 µM, the TGI [49] was 22.8 µM and the TGI [50] was > 48.1 µM. The TGI [51] was 24 µM and the TGI [52] was > 58.5 µM.
For `CCC1(O)CC2CC(=O)OC2C1O` (stereo not drawn), the TGI [1] was > 100 µM, the TGI [2] was > 100 µM and the TGI [3] was > 100 µM. The TGI [4] was > 100 µM, the TGI [6] was > 100 µM and the TGI [7] was 25.7 µM. The TGI [8] was > 100 µM, the TGI [9] was > 100 µM and the TGI [10] was > 100 µM. For the same compound, the TGI [53] was > 100 µM, the TGI [12] was > 100 µM and the TGI [14] was > 100 µM. The TGI [54] was > 100 µM, the TGI [15] was > 100 µM and the TGI [16] was > 100 µM. The TGI [17] was > 100 µM, the TGI [18] was > 100 µM and the TGI [19] was > 100 µM. For the same compound, the TGI [55] was > 100 µM, the TGI [20] was > 100 µM and the TGI [21] was > 100 µM. For the same compound, the TGI [56] was > 100 µM, the TGI [22] was > 100 µM and the TGI [23] was > 100 µM. For the same compound, the TGI [24] was > 100 µM, the TGI [25] was > 100 µM and the TGI [26] was > 100 µM. For the same compound, the TGI [27] was > 100 µM, the TGI [28] was > 100 µM and the TGI [29] was > 100 µM. For the same compound, the TGI [30] was > 100 µM, the TGI [31] was > 100 µM and the TGI [32] was > 100 µM. For the same compound, the TGI [33] was > 100 µM, the TGI [34] was > 100 µM and the TGI [35] was > 100 µM. The TGI [36] was > 100 µM, the TGI [37] was > 100 µM and the TGI [38] was > 100 µM. The TGI [39] was > 100 µM, the TGI [57] was > 100 µM and the TGI [40] was > 100 µM. For the same compound, the TGI [41] was > 100 µM, the TGI [42] was > 100 µM and the TGI [43] was > 100 µM. For the same compound, the TGI [45] was > 100 µM, the TGI [46] was > 100 µM and the TGI [58] was > 100 µM. For the same compound, the TGI [47] was > 100 µM, the TGI [59] was > 100 µM and the TGI [48] was > 100 µM. For the same compound, the TGI [49] was > 100 µM, the TGI [50] was > 100 µM and the TGI [51] was > 100 µM. The TGI [52] was > 100 µM.
